Each compound was assayed against T1, HCV NS3/4A (wild-type) (Hepatitis C virus genotype 1b, UniProt O92972) (assay: NS3/4A activity assay with FRET peptide substrate, wild-type enzyme). Conditions: Table S1; wild-type NS3/4A, FRET peptide substrate; read-out: NS3/4A IC50 range class 10 -100.
T1 construct: The NS3/4A construct represented the individual NS3 proteinase domain N-terminally fused with an NS4A co-factor; 6xHis; purchased AnaSpec (Fremont, CA)
Format: biochemical, HCV genotype 1b, strain HC-J4
Text: Reagents were purchased from Sigma unless indicated otherwise. The FRET substrate Ac-DE-D(Edans)-EE-Abu-ψ-[COO]-AS-K(Dabsyl)-NH2, purified recombinant wild-type NS3/4A from HCV genotype 1b, strain HC-J4, and the mutants with the V36M, R155K, A156T, D168A and V170A resistance mutations were from AnaSpec (Fremont, CA). The NS3/4A construct represented the individual NS3 proteinase domain N-terminally fused with an NS4A co-factor and tagged with a 6xHis tag. NS3/4A was in active form and the pre-activation by pep-4A or pep4AK was not necessary. Pyroglutamic acid-Arg-Thr-Lys-Arg-7-amino-4-methylcoumarin was from Peptides International (Louisville, KY). West Nile virus NS2B-NS3 proteinase (strain NY99) was expressed, purified and refolded to restore its functional activity as described earlier. The pET15b-Den2-CF40-Gly-NS3pro 185 plasmid encoding the Dengue virus type 2 NS2B-NS3 protease was a kind gift of Dr. Subhash Vasudevan (Program in Emerging Infectious Diseases, DUKE-NUS Graduate Medical School, Singapore). DV NS2B-NS3 proteinase was expressed purified and refolded to restore its functional activity as described previously, [70]. The expression of the soluble C-terminally truncated human furin construct in Sf9 insect cells (an ovarian cell line from fall armyworm Spodoptera frugiperda; Invitrogen, Carlsbad, CA) infected with the recombinant baculovirus and purification of soluble furin from the medium were described earlier. Original human hepatocarcinoma Huh7 cells were obtained from ATCC (Manassas, VA).
The NS3/4A activity assay was performed at 37°C in triplicate in wells of a 96-well plate in 0.2 ml 50 mM HEPES, pH 7.5, containing 100 mM NaCl, 10 mM DTT, 20% glycerol, the Ac-DE-D(Edans)-EE-Abu-ψ-[COO]-AS-K(Dabsyl)-NH2 substrate (10 µM) and the NS3/4A enzyme (10 nM). Reaction velocity was monitored continuously at λex = 355 nm and λem = 500 nm for 10 min using a Spectramax Gemini EM fluorescence spectrophotometer (Molecular Devices, Sunnyvale, CA) and the initial rate of reaction v was recorded for each reaction. There was no significant additional absorption by compounds 1–8 we identified, which might interfere with NS3/4A assay. Compound stock solutions (10 mM) were made in 100% DMSO. Stocks were then diluted using the assay buffer. As a result, the final DMSO concentration was always below 1% in the assay reactions.
To measure the inhibitory potency of the compounds, their increasing concentrations were pre-incubated with the individual proteinases in the corresponding buffer for 30 min at ambient temperature. At least, 7–9 different concentrations were used for each inhibitor. The residual activity of the enzymes was then measured as above. The IC50 values of the inhibitory compounds were calculated by determining the concentrations of the compounds needed to inhibit 50% of the enzyme activity against the peptide substrate. GraphPad Prism was used as fitting software.

T1 sequence (O92972 1027-1208): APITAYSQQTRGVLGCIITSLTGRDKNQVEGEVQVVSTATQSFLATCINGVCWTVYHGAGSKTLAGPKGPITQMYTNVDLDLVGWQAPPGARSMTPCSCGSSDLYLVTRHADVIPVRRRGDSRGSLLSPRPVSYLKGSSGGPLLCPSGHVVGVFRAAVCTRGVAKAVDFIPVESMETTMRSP

Structure (SMILES)	IC50
FC(F)(F)c1cccc(-c2nc3nc(Cl)c(Cl)nc3[nH]2)c1 [Compound 18]	10 to 100 µM
CC(C)N(C(=O)CSc1c(Cl)c(Cl)c(Cl)c(Cl)c1Cl)C(C)C [Compound 19]	10 to 100 µM
O=C(N/N=C\c1cc(Br)cc(Br)c1O)N/N=C/c1cc(Br)cc(Br)c1O [Compound 20]	10 to 100 µM
O=C(Nc1ccc(Cl)c(Cl)c1)c1ccc(C(=O)Nc2ccc(Cl)c(Cl)c2)cc1 [Compound 21]	10 to 100 µM
O=C(O)c1c(Br)c(Br)c(Br)c(Br)c1C(=O)Nc1cc([N+](=O)[O-])ccc1O [Compound 22]	10 to 100 µM
O=C(CNC(=O)Nc1ccc(Cl)c(Cl)c1)NNC(=O)Nc1ccc(F)c(Cl)c1 [Compound 23]	10 to 100 µM
O=C(Nc1ccc(Cl)c(Cl)c1)C1C(=O)C(=O)N(c2ccc(Cl)c(Cl)c2)C1=O (centres unmarked) [Compound 24]	10 to 100 µM
O=C1CS(=O)(=O)CN1c1ccc(Cl)c(Cl)c1 [Compound 25]	10 to 100 µM
Cc1nn(C(=S)S)c(C)c1N=Nc1cccc(Cl)c1Cl [Compound 26]	10 to 100 µM
Cc1c(N=Nc2cccc(Cl)c2Cl)c(-c2ccccc2)nn1C(=S)S [Compound 27]	10 to 100 µM
Cc1nn(C(N)=S)c(C)c1N=Nc1cccc(Cl)c1Cl [Compound 28]	10 to 100 µM
CSC(=S)n1nc(C)c(N=Nc2cccc(Cl)c2Cl)c1C [Compound 29]	10 to 100 µM
Brc1ccc2c(ccc3c2nnc2ncnn23)c1 [Compound 30]	10 to 100 µM
OCC(O)C(O)C(O)c1nn(-c2ccccc2)c2nc3cc(Cl)c(Cl)cc3nc12 (centres unmarked) [Compound 31]	10 to 100 µM
C(=C\c1ccccc1)/Cn1nc(-c2ccccc2)nc1-c1cnccn1 [Compound 32]	10 to 100 µM
Cc1cc(S(=O)(=O)Nc2nc3cc(-c4ccc(Cl)cc4)sc3c(=O)n2N)c(S)cc1Cl [Compound 33]	10 to 100 µM
Sc1ccccc1Nc1nc(SCc2ccccc2)nc2n[nH]c(Cc3nc4ccccc4s3)c12 [Compound 34]	10 to 100 µM
Clc1ccc(OCc2nn3c(CCCCc4nnc5sc(COc6ccc(Cl)cc6Cl)nn45)nnc3s2)c(Cl)c1 [Compound 35]	10 to 100 µM
O=S(=O)(Nc1cc(Cl)c(Cl)cc1N=Cc1ccc(N(CCCl)CCCl)cc1F)c1ccccc1 [Compound 36]	10 to 100 µM
O=[N+]([O-])c1ccc(O)c(C=Nc2cc(Cl)c(Cl)cc2NS(=O)(=O)c2ccccc2)c1 [Compound 37]	10 to 100 µM
O=S(=O)(Nc1c(Cl)c(Cl)c(NS(=O)(=O)c2ccccc2)c(Cl)c1Cl)c1ccccc1 [Compound 38]	10 to 100 µM
O=C(Nc1ccc(Cl)c(Cl)c1)C(=O)C(C(=O)c1ccccc1F)C1OC(=O)c2ccccc21 (centres unmarked) [Compound 39]	10 to 100 µM
Clc1ccc(Nc2nc(SCc3ccccc3)nc3n[nH]c(Cc4nn[nH]n4)c23)cc1 [Compound 40]	10 to 100 µM

Same assay, conditions: wild-type NS3/4A 10 nM, Ac-DE-D(Edans)-EE-Abu-ψ-[COO]-AS-K(Dabsyl)-NH2 10 µM, 30 min pre-incubation; read-out: NS3/4A IC50

Structure (SMILES)	IC50
FC(F)(F)c1nc2nc(Cl)c(Cl)nc2s1 [Compound 9]	4.5 µM
S=c1[nH]nc(CCCCc2n[nH]c(=S)n2/N=C/c2ccc(Cl)cc2Cl)n1/N=C/c1ccc(Cl)cc1Cl [Compound 10]	5.25 µM
O=C(c1ccco1)c1c(C(F)(F)F)n([O-])c2cc(Cl)c(Cl)cc2[n+]1=O [Compound 11]	6.5 µM
